Measurements reported in ChEMBL document CHEMBL1133051, “Design and synthesis of a novel water soluble benzotetrazepinone” (Bioorg Med Chem Lett, 2000).

Tested on: MCF7
Test: Inhibitory concentration of compound against Mer+ breast tumor cell line MCF-7
Assay type: functional, cell-based
Settings: Homo sapiens

IC50	SMILES
80 µM	CN1N=Nc2cc(C(=O)NCCN3CCOCC3)ccc2N(C)C1=O
800 µM	Cn1nnc2c(C(N)=O)ncn2c1=O [TEMOZOLOMIDE]
